Results taken from patent publication US10258639B2, “Methods for treating insulin resistance and for sensitizing patients to GLP1 agonist therapy” (Research Development Foundation, priority 2014, dated 2019).

System: INS1 cells
Test: RNAseq of INS1 cells grown in chronic high glucose compared to controls and stimulated with FSK (Table 2)
Assay type: cell-based, rat
Description: INS-1 insulinoma cells were cultured in RPMI (corning cellgro) containing 10% fetal bovine serum (Gemini Bio Products), 100 μg/mL penicillin-streptomycin and 1 mM sodium pyruvate (corning cellgro). MIN6 cells were grown in DMEM (corning cellgro) with 10% FBS, 100 μg/mL penicillin-streptomycin and 70 uM beta-mercaptoethanol. For chronic glucose experiments, cells were maintained under low (2.8 mM) or high (20 mM) glucose for 3 days. Exendin-4 (10 nM), Forskolin (10 μM), KCl (40 mM), DMOG (1 mM) and rapamycin (50 nM) were added to cells as indicated. Cellular cAMP levels were measured using an ELISA kit (Cayman Chemical Company) according to manufacturer's instructions. Total RNAs from cells or primary islets were extracted using Trizol and cDNA was generated using the Transcriptor First Strand cDNA Synthesis kit (Roche Applied Science). cDNAs were quantified on a lightcycler 480 instrument (Roche Applied Science). Gene expression data were presented relative to the expression of housekeeping gene L32 (rat samples) and 18S (mouse and human islets). RNA-Seq libraries were prepared using the mRNA isolation protocol and the NEBNext-Ultra kits from New England Biolabs following the manufacturer's protocols. Libraries were quantitated by Qubit (Invitrogen), and run on a MiSeq instrument with paired-end 75 bp reads using v3 chemistry (Illumina) Data were analyzed by tophat2 and cuffdiff against the mouse mm10 genome build. The GEO accession number for RNAseq studies reported in the paper is GSE60158.

Compound: C=C[C@@]1(C)CC(=O)[C@]2(O)[C@@]3(C)[C@@H](O)CCC(C)(C)[C@@H]3[C@H](O)[C@H](OC(C)=O)[C@@]2(C)O1 [FSK, Forskolin]
- Accsl RNAseq value (High glucose, FSK): 0.1
- Acpt RNAseq value (High glucose, FSK): 0.2
- Acsl4 RNAseq value (High glucose, FSK): 24.1
- Agt RNAseq value (High glucose, FSK): 4.7
- Ahi1 RNAseq value (High glucose, FSK): 18.6
- Bhlha15 RNAseq value (High glucose, FSK): 10.9
- Btg3 RNAseq value (High glucose, FSK): 63.0
- Bysl RNAseq value (High glucose, FSK): 56.8
- Canx RNAseq value (High glucose, FSK): 134.4
- Ccni RNAseq value (High glucose, FSK): 240.1
- Chd1 RNAseq value (High glucose, FSK): 24.3
- Chrne RNAseq value (High glucose, FSK): 0.0
- Ctf1 RNAseq value (High glucose, FSK): 0.4
- Cxcl2 RNAseq value (High glucose, FSK): 1.2
- Cyth3 RNAseq value (High glucose, FSK): 54.2
- Dkc1 RNAseq value (High glucose, FSK): 97.6
- Epha3 RNAseq value (High glucose, FSK): 0.0
- Epor RNAseq value (High glucose, FSK): 0.1
- Fam49a RNAseq value (High glucose, FSK): 0.1
- Ficd RNAseq value (High glucose, FSK): 15.9
- Fmc1 RNAseq value (High glucose, FSK): 28.5
- Fn1 RNAseq value (High glucose, FSK): 320.4
- Gabre RNAseq value (High glucose, FSK): 0.0
- Gars RNAseq value (High glucose, FSK): 308.1
- Ggt5 RNAseq value (High glucose, FSK): 0.0
- Gnl3 RNAseq value (High glucose, FSK): 23.1
- Gnmt RNAseq value (High glucose, FSK): 0.0
- Gzmm RNAseq value (High glucose, FSK): 0.0
- Hmcn1 RNAseq value (High glucose, FSK): 0.0
- Hmga2 RNAseq value (High glucose, FSK): 0.0
- Hnrnpa1 RNAseq value (High glucose, FSK): 35.4
- Hnrpdl RNAseq value (High glucose, FSK): 165.3
- Hs3st2 RNAseq value (High glucose, FSK): 1.0
- Hspa4 RNAseq value (High glucose, FSK): 113.8
- Hspd1 RNAseq value (High glucose, FSK): 63.0
- Icam2 RNAseq value (High glucose, FSK): 0.0
- Il13ra1 RNAseq value (High glucose, FSK): 0.2
- Il28ra RNAseq value (High glucose, FSK): 6.8
- Kcnb1 RNAseq value (High glucose, FSK): 13.1
- Kcnj13 RNAseq value (High glucose, FSK): 0.8
- Kdm1b RNAseq value (High glucose, FSK): 8.1
- Kif9 RNAseq value (High glucose, FSK): 0.0
- LOC683722 RNAseq value (High glucose, FSK): 7.9
- LOC686295 RNAseq value (High glucose, FSK): 3.8
- LOC689959 RNAseq value (High glucose, FSK): 7.2
- Lrfn5 RNAseq value (High glucose, FSK): 0.2
- Map3k4 RNAseq value (High glucose, FSK): 22.7
- Mef2d RNAseq value (High glucose, FSK): 175.0
- Megf10 RNAseq value (High glucose, FSK): 0.2
- Msn RNAseq value (High glucose, FSK): 3.2
- Myof RNAseq value (High glucose, FSK): 0.1
- Nckap1l RNAseq value (High glucose, FSK): 1.8
- Nkx2-2 RNAseq value (High glucose, FSK): 93.4
- Nolc1 RNAseq value (High glucose, FSK): 192.8
- Notch4 RNAseq value (High glucose, FSK): 0.6
- Ormdl3 RNAseq value (High glucose, FSK): 128.5
- Otop3 RNAseq value (High glucose, FSK): 0.0
- Pabpc6 RNAseq value (High glucose, FSK): 0.1
- Pde3b RNAseq value (High glucose, FSK): 45.5
- Pde4dip RNAseq value (High glucose, FSK): 29.3
- Pdrg1 RNAseq value (High glucose, FSK): 28.6
- Plcb2 RNAseq value (High glucose, FSK): 0.0
- RGD1309079 RNAseq value (High glucose, FSK): 0.8
- RGD1311084 RNAseq value (High glucose, FSK): 0.0
- Rab3gap2 RNAseq value (High glucose, FSK): 29.1
- Rab11fip1 RNAseq value (High glucose, FSK): 8.3
- Rap2a RNAseq value (High glucose, FSK): 12.9
- Rho RNAseq value (High glucose, FSK): 0.1
- Rpl7a RNAseq value (High glucose, FSK): 0.7
- Rpl17 RNAseq value (High glucose, FSK): 126.3
- Rrs1 RNAseq value (High glucose, FSK): 71.4
- Sgce RNAseq value (High glucose, FSK): 0.3
- Smad1 RNAseq value (High glucose, FSK): 29.8
- Smad3 RNAseq value (High glucose, FSK): 1.6
- Snapc1 RNAseq value (High glucose, FSK): 2.7
- Sncaip RNAseq value (High glucose, FSK): 4.9
- Spon2 RNAseq value (High glucose, FSK): 0.3
- Srp54 RNAseq value (High glucose, FSK): 27.8
- Stard8 RNAseq value (High glucose, FSK): 0.4
- Syp RNAseq value (High glucose, FSK): 447.7
- T2 RNAseq value (High glucose, FSK): 0.1
- Taf1a RNAseq value (High glucose, FSK): 6.7
- Tex38 RNAseq value (High glucose, FSK): 0.1
- Tmem114 RNAseq value (High glucose, FSK): 0.0
- Tomm20 RNAseq value (High glucose, FSK): 70.0
- Tpp2 RNAseq value (High glucose, FSK): 12.3
- Twistnb RNAseq value (High glucose, FSK): 9.1
- Usp9x RNAseq value (High glucose, FSK): 40.0
- Vps37b RNAseq value (High glucose, FSK): 32.2
- Zfp830 RNAseq value (High glucose, FSK): 17.0
- Zfp385d RNAseq value (High glucose, FSK): 0.1
- Accsl Fold (High glucose, FSK/control): 0.9
- Acpt Fold (High glucose, FSK/control): 3.0
- Acsl4 Fold (High glucose, FSK/control): 1.6
- Agt Fold (High glucose, FSK/control): 1.8
- Ahi1 Fold (High glucose, FSK/control): 1.5
- Bhlha15 Fold (High glucose, FSK/control): 1.1
- Btg3 Fold (High glucose, FSK/control): 1.2
- Bysl Fold (High glucose, FSK/control): 1.5
- Canx Fold (High glucose, FSK/control): 1.1
- Ccni Fold (High glucose, FSK/control): 1.5
- Chd1 Fold (High glucose, FSK/control): 1.4
- Chrne Fold (High glucose, FSK/control): 0.0
- Ctf1 Fold (High glucose, FSK/control): 1.8
- Cxcl2 Fold (High glucose, FSK/control): 3.2
- Cyth3 Fold (High glucose, FSK/control): 3.2
- Dkc1 Fold (High glucose, FSK/control): 1.2
- Epha3 Fold (High glucose, FSK/control): 0.5
- Epor Fold (High glucose, FSK/control): 1.0
- Fam49a Fold (High glucose, FSK/control): 1.0
- Ficd Fold (High glucose, FSK/control): 1.2
- Fmc1 Fold (High glucose, FSK/control): 1.1
- Fn1 Fold (High glucose, FSK/control): 2.7
- Gars Fold (High glucose, FSK/control): 1.8
- Gnl3 Fold (High glucose, FSK/control): 1.3
- Gzmm Fold (High glucose, FSK/control): 0.0
- Hmcn1 Fold (High glucose, FSK/control): 0.3
- Hmga2 Fold (High glucose, FSK/control): 0.0
- Hnrnpa1 Fold (High glucose, FSK/control): 1.4
- Hnrpdl Fold (High glucose, FSK/control): 1.5
- Hs3st2 Fold (High glucose, FSK/control): 2.6
- Hspa4 Fold (High glucose, FSK/control): 1.2
- Hspd1 Fold (High glucose, FSK/control): 1.0
- Icam2 Fold (High glucose, FSK/control): 0.0
- Il13ra1 Fold (High glucose, FSK/control): 1.0
- Il28ra Fold (High glucose, FSK/control): 1.7
- Kcnb1 Fold (High glucose, FSK/control): 0.8
- Kcnj13 Fold (High glucose, FSK/control): 3.0
- Kdm1b Fold (High glucose, FSK/control): 1.4
- Kif9 Fold (High glucose, FSK/control): 0.7
- LOC683722 Fold (High glucose, FSK/control): 1.8
- LOC686295 Fold (High glucose, FSK/control): 1.3
- LOC689959 Fold (High glucose, FSK/control): 0.9
- Lrfn5 Fold (High glucose, FSK/control): 1.2
- Map3k4 Fold (High glucose, FSK/control): 1.3
- Mef2d Fold (High glucose, FSK/control): 1.8
- Msn Fold (High glucose, FSK/control): 1.0
- Myof Fold (High glucose, FSK/control): 0.6
- Nckap1l Fold (High glucose, FSK/control): 0.9
- Nkx2-2 Fold (High glucose, FSK/control): 2.2
- Nolc1 Fold (High glucose, FSK/control): 1.2
- Notch4 Fold (High glucose, FSK/control): 1.7
- Ormdl3 Fold (High glucose, FSK/control): 1.1
- Otop3 Fold (High glucose, FSK/control): 0.0
- Pabpc6 Fold (High glucose, FSK/control): 4.4
- Pde3b Fold (High glucose, FSK/control): 1.9
- Pde4dip Fold (High glucose, FSK/control): 1.4
- Pdrg1 Fold (High glucose, FSK/control): 1.0
- Plcb2 Fold (High glucose, FSK/control): 1.0
- RGD1309079 Fold (High glucose, FSK/control): 1.3
- Rab3gap2 Fold (High glucose, FSK/control): 1.3
- Rab11fip1 Fold (High glucose, FSK/control): 1.9
- Rap2a Fold (High glucose, FSK/control): 2.2
- Rho Fold (High glucose, FSK/control): 0.7
- Rpl7a Fold (High glucose, FSK/control): 2.5
- Rpl17 Fold (High glucose, FSK/control): 1.0
- Rrs1 Fold (High glucose, FSK/control): 1.5
- Sgce Fold (High glucose, FSK/control): 0.8
- Smad1 Fold (High glucose, FSK/control): 1.4
- Smad3 Fold (High glucose, FSK/control): 0.7
- Snapc1 Fold (High glucose, FSK/control): 1.2
- Sncaip Fold (High glucose, FSK/control): 1.4
- Spon2 Fold (High glucose, FSK/control): 0.7
- Srp54 Fold (High glucose, FSK/control): 1.1
- Stard8 Fold (High glucose, FSK/control): 2.3
- Syp Fold (High glucose, FSK/control): 1.5
- T2 Fold (High glucose, FSK/control): 0.7
- Taf1a Fold (High glucose, FSK/control): 1.3
- Tex38 Fold (High glucose, FSK/control): 0.3
- Tomm20 Fold (High glucose, FSK/control): 1.4
- Tpp2 Fold (High glucose, FSK/control): 1.3
- Twistnb Fold (High glucose, FSK/control): 1.5
- Usp9x Fold (High glucose, FSK/control): 1.5
- Vps37b Fold (High glucose, FSK/control): 1.3
- Zfp830 Fold (High glucose, FSK/control): 1.1
- Zfp385d Fold (High glucose, FSK/control): 0.2
- Accsl RNAseq value (Low glucose, FSK): 0.3
- Acpt RNAseq value (Low glucose, FSK): 0.3
- Acsl4 RNAseq value (Low glucose, FSK): 28.6
